Measurements as given in patent US20100249231A1, “HSP90 Inhibitors of Protein-Protein Interaction HSP90 Chaperone Complexes and Therapeutic Uses Thereof” (THE OHIO STATE UNIVERSITY RESEARCH FOUNDATION, priority 2007, published 2010).
pIC50: −log10 of the molar value. Peptide text beside a SMILES is read from it. * marks the point of attachment. Cbz = O=C(OCc1ccccc1)*

Experiments:
[1] = tested on: Cdk4; test: Western blot of Hsp90 client protein Cdk4 in Panc-1 cells; format: cell-based, human; details: for level of Cdk4 protein: 10 μM proteasome inhibitor, 24 h
Experimental: (§1) The levels of Akt and Cdk4, two well-known Hsp90 clients, were measured. Celastrol decreased the protein levels of Akt and Cdk4 in a concentration- and time-dependent manner.
(§2) Western Blot. The general procedure for the Western blot analysis was briefly described as follows. After drug treatment, cells were washed twice with ice-cold phosphate-buffered saline (PBS), scraped into lysis buffer (20 mM Tris, pH 7.5, 1% Nonidet P-40, 150 mM NaCl, 5 mM EDTA, 1 mM Na3VO4) supplemented with a protease inhibitor mixture (Sigma, added at a 1:100 dilution), and incubated on ice for 20 min. The lysate was then centrifuged at 14,000×g for 10 min. Equal amounts of total protein were subjected to SDS-PAGE and transferred onto nitrocellulose membranes and probed with appropriate antibodies.

[2] = tested on: Akt; test: Western blot of Hsp90 client protein Akt in Panc-1 cells; format: cell-based, human; details: for level of Akt protein: 10 μM proteasome inhibitor, 24 h
Experimental: as §1, §2

[3] = tested on: RIP1-Tag2 transgenic pancreatic cancer mouse model; test: RIP1-Tag2 transgenic pancreatic cancer mouse model; format: in vivo, mice
Text: To further evaluate the anticancer efficacy of celastrol against pancreatic cancer, the inventors utilized celastrol to inhibit tumor growth in a RIP1-Tag2 transgenic pancreatic cancer mouse model. In this mouse model, hyperplastic islets begin to appear by 3-4 weeks of age, and solid tumors emerge in pancreas at about 8-9 weeks. The cancer will metastasized into other sites such as mesenterium in the peritoneal cavity from 10-12 weeks.
RIP1-Tag2 Transgenic Mouse Model. RIP1-Tag2 transgenic mice used contained the insulin promoter-driven SV40 T-antigen and produced spontaneous multifold and multistage pancreatic islet tumors. RIP1-Tag2 positive mice were identified by PCR analysis of genomic DNA from tail biopsy. […] After 4 weeks of injection, mice of each group were sacrificed by CO2 and tumors were isolated and saved. The remaining mice were kept to calculate the survival rate.

[4] = tested on: Hsp90; test: Western blot of Hsp90 protein levels; format: cell-based, human
Experimental: as §2

[5] = tested on: Panc-1 cells; test: MTS assay; details: read-out: IC50 (cytotoxicity, MTS), 24 h
Experimental: MTS Assay. The human Panc-1 cells were seeded in 96-well plates at a density of 3000-5000 cells per well. […] Number of viable cells was assessed by MTS assay after 24 h. The IC50 values for cytotoxicity were calculated with WinNonlin software (Pharsight, Mountain View, Calif.).

[6] = tested on: Panc-1 xenograft tumor; test: Panc-1 xenograft mouse model; format: in vivo, mice; details: 3 mg/kg i.p.; for inhibition of tumor growth: after the last injection
Experimental: After the last injection, celastrol inhibited 80% of tumor growth (p<0.001) (FIG. 6A).
Xenograft Mouse Model. 4 to 6-week old nu/nu athymic female mice were obtained from Charles River Laboratories (Charles River, Wilmington, Mass.). The human Panc-1 cells (5-10×10^6) were mixed with reconstituted basement membrane (Collaborative Research, Bedford, Mass.) and implanted to the right and left flanks of the mice. Tumor volumes were calculated with the formula: width^2×length/2. When tumors reached 100 mm^3, animals were randomized into different groups for treatment (n=6/group).
Then, the dosing schedule was changed to one injection per three days. Tumor sizes and body weights were measured twice a week.

[7] = 3 mg/kg i.p. once every 3 days for four weeks, at 12th week

SMILES	level of Cdk4 protein [1]	level of Akt protein [2]	survival increase over control ([3]; 3 mg/kg i.p.) [days]	decrease of tumors in pancreas compared to the control group [3, 7] [%]	pIC50 [5]	further results
CC(C)C[C@@H](C=O)NC(=O)[C@H](CC(C)C)NC(=O)[C@H](CC(C)C)NC(=O)OCc1ccccc1 [MG132] (Cbz-Leu-Leu-Leu-aldehyde)	did not change the levels	did not change the levels	–	–	–	–
CC1=C(O)C(=O)C=C2C1=CC=C1[C@@]2(C)CC[C@@]2(C)[C@@H]3C[C@](C)(C(=O)O)CC[C@]3(C)CC[C@]12C [celastrol, (9b,13a,14b,20a)-3-Hydroxy-9,13-dimethyl-2-oxo-24,25,26-trinoroleana-1(10),3,5,7-tertraen-29-oic acid]	–	–	12	30	5.52	decrease of Cdk4 protein level ([1]; 5 μM, 24-h treatment): 70%; median survival time ([3]; 3 mg/kg i.p.): 96 days; weight loss ([3]; 3 mg/kg i.p., RIP1-Tag2 mice): about 10%; effect on Hsp90 protein levels [4]: no effect; decrease of Akt protein level ([2]; 5 μM, 24-h treatment): 80%; inhibition of tumor growth [6]: 80%; inhibition of tumor growth ([6]; listed as Celastrol): more than 80%; weight loss in mice ([6]; xenograft mice): 5%
COC1=C2C[C@@H](C)C[C@H](OC)[C@H](O)[C@@H](C)/C=C(\C)[C@H](OC(N)=O)[C@@H](OC)/C=C\C=C(/C)C(=O)NC(=CC1=O)C2=O [geldanamycin, reference compound]	–	–	6	13	5.10	decrease of metastatic tumors in mesenterium compared to the control group [3, 7]: 50%
CC(=O)N[C@@H](CSC(=O)[C@]1([C@@H](O)C(C)C)NC(=O)[C@H](C)[C@@H]1O)C(=O)O [lactacystin]	did not change the levels	did not change the levels	–	–	–	–
